In patent US20100137344A1, “INDUCTION OF ANALGESIA IN NEUROPATHIC PAIN” (University Court of the University of Edinburgh, priority 2006, published 2010):

Legend:
[1] = system: SNL model of neuropathic pain; assay: SNL spinal nerve ligation model, Hargreaves' test, topical icilin; format: in vivo; conditions: icilin 200 μM topical
Method: The SNL model of neuropathic pain was set up according to Kim and Chung 1992 (Pain 50: 355-363). The Hargreaves' test for thermal hyperalgesia was carried out as described above and icilin (200 μM) was applied topically to the ipsilateral (⋄) and contralateral (▪) paw. Values are shown as means±SEM. † Indicates statistically significant reversal of sensitisation ipsilateral to nerve injury (see FIG. 1). No significant drug effects were seen on reflex withdrawal responses of the contralateral limb.

naïve rats = assay: Topical application to paws of naïve rats, behavioural reflex testing (PWL, PWT); format: in vivo, rat; conditions: Naïve
Method: Thermal sensitivity was assessed by measuring paw withdrawal latency (PWL, s) in response to a noxious thermal stimulus (Hargreaves' thermal stimulator, Linton Instrumentation, Diss, UK) directed to the hindpaw mid-plantar glabrous surface. Mechanical sensitivity was recorded as the paw withdrawal threshold (PWT, mN/mm^2) to calibrated von Frey filaments (Stoelting, Ill., US), as previously described^[39]. Sensitivity to noxious cold was assessed by placing animals in a waterbath with an aluminium floor containing 1 cm deep 4° C. water and counting the time the paw was held suspended over a 20 s period.
Icilin was applied at concentrations of 2.5-500 μM (in water with 0.2% DMF), by placing CCI or naïve rats unrestrained for 5 min in a 1 cm deep waterbath (sufficient to cover paws), which was thermostatically controlled to a temperature of 30° C., or by very lightly anaesthetising rats and immersing hindpaws in small tubes containing 5 ml icilin (500 μM-5 mM, with a vehicle of 45% dimethylformamide in 0.2% aqueous Tween 80) for 5 min, followed by sensory testing for 60-80 mins. The effects of (−)-menthol and its stereoisomers isomenthol (1S,2R,5R-menthol,) and (+)-menthol (1S,2R,5S(+)-menthol) (4-16 mM in 80% ethanol) were also assessed. Relevant vehicles were always assessed in similar experiments. As a contrast, the effect of cinnamaldehyde (1.5 mM in water) and the effect of cinnamaldehyde with additional icilin (80 μM in water with 0.2% DMF) were assessed in naïve animals. The effects of icilin (80 μM) were further assessed in CCI animals that had undergone antisense and mis-sense treatment for knockdown of TRPM8 or immediately following intrathecal injection of either LY 341495 or UBP 1112. […] The effects of brief paw immersion at different temperatures (10-22° C. for 5 min) on CCI rats were assessed by mechanical testing. The effects of intrathecal LY 341495 or UBP 1112 on the reversal of ipsilateral sensitisation in CCI following a 16° C. cool challenge for 5 min were measured. Reflex testing commenced 5 minutes following challenge, unless animals had been anaesthetised, in which case 15 minutes was allowed for recovery. Six replicate animals were tested in all pharmacological experiments.

[2] = icilin 1000 μM applied to paw, 15 mins
[3] = icilin 1000 μM applied to paw, 50 mins
[4] = icilin 2500 μM applied to paw, 15 mins
[5] = icilin 2500 μM applied to paw, 50 mins
[6] = icilin 5000 μM applied to paw, 15 mins
[7] = icilin 5000 μM applied to paw, 50 mins

O=C1NC(c2cccc([N+](=O)[O-])c2)=CCN1c1ccccc1O [icilin, 1-(2′-hydroxyphenyl)-4-(3″-nitrophenyl)-1,2,3,6-tetrahydropyrimidin-2-one]
analgesia, thermal hyperalgesia (Hargreaves' test) [1]: causes analgesia
Mechanical PWT (naïve rats; [2]): 4830.6 ± 0.0 mN/mm^2
Thermal PWL (naïve rats; [2]): 15.1 ± 1.2 s
Mechanical PWT (naïve rats; [3]): 4830.6 ± 0.0 mN/mm^2
Thermal PWL (naïve rats; [3]): 14.8 ± 0.9 s
Mechanical PWT (naïve rats; [4]): 4830.6 ± 0.0 mN/mm^2
Thermal PWL (naïve rats; [4]): 14.9 ± 0.3 s
Mechanical PWT (naïve rats; [5]): 4830.6 ± 0.0 mN/mm^2
Thermal PWL (naïve rats; [5]): 13.2 ± 0.8 s
Mechanical PWT (naïve rats; [6]): 3828.6 ± 316.8 mN/mm^2
Thermal PWL (naïve rats; [6]): 15.3 ± 0.5 s
Mechanical PWT (naïve rats; [7]): 4830.6 ± 0.0 mN/mm^2
Thermal PWL (naïve rats; [7]): 13.1 ± 0.7 s
